In patent publication EP4159721A1, “CONDENSED 3,3-DIFLUORO-PIPERIDINE DERIVATIVES AS INHIBITORS OF CORONAVIRUSES 3-CHYMOTRYPSIN-LIKE PROTEASE” (Qubit Pharmaceuticals, priority 2021, dated 2023):

molecular target: T1, SARS-CoV-2 3CLpro (Severe acute respiratory syndrome coronavirus 2, UniProt P0DTD1); experiment: Binding studies by Mass Spectrometry (ESI-MS, denaturing conditions); settings: 10 µM 3CLpro, 1:1 or 10:1 compound:protein, 20 min at room temperature

Row | SMILES | Covalent binding
1 | CSc1cc2c(cn1)C(=O)C(F)(F)C(=O)N2 [Compound 13, 3,3-difluoro-7-(methylsulfanyl)-1,2,3,4-tetrahydro-1,6-naphthyridine-2,4-dione] | Covalent binding is confirmed
2 | CSc1ccc2c(c1)NC(=O)C(F)(F)C2=O [Compound 14, 3,3-difluoro-7-(methylsulfanyl)-1,2,3,4-tetrahydroquinoline-2,4-dione] | Covalent binding is confirmed

molecular target: T1, SARS-CoV-2 3CLpro; experiment: FRET-based assay of 3CLpro inhibitory activity; type: biochemical; settings: not given

Row | SMILES | IC50 [nM]
3 | CSc1cc2c(cn1)C(=O)C(F)(F)C(=O)N2 [Compound 13, 3,3-difluoro-7-(methylsulfanyl)-1,2,3,4-tetrahydro-1,6-naphthyridine-2,4-dione] | 2270

same assay, conditions: 0.02 µM 3CLpro, 5 µM peptide substrate, 20 minutes incubation at room temperature; triplicate, average and standard deviation; read-out: IC50

Row | SMILES | IC50 [nM]
4 | CSc1ccc2c(c1)NC(=O)C(F)(F)C2=O [Compound 14, 3,3-difluoro-7-(methylsulfanyl)-1,2,3,4-tetrahydroquinoline-2,4-dione] | 830

molecular target: T1, SARS-CoV-2 3CLpro; experiment: Binding assessment by Nuclear Magnetic Resonance (WaterLOGSY and STD); design: key: +++: strong binder; ++: binder; +/-: not to very low binder; settings: NMR (WaterLOGSY, STD); 10 µM of 3CLpro, ligand 100 µM to 2 mM, pH=7.3

Row | SMILES | Binding Activity
5 | Cc1nn(C)c2c1C(O)C(F)(F)C(=O)N2 (single isomer, unassigned) [Compound 19 or 20, 5,5-difluoro-4-hydroxy-1,3-dimethyl-1H,4H,5H,6H,7H-pyrazolo[3,4-b]pyridin-6-one] | ++
6 | CSc1ccc2c(c1)NC(=O)C(F)(F)C2(C)O (centres unmarked) [reference compound] | +/-
7 | CSc1cc(F)c2c(c1)NC(=O)C(F)(F)C2O (single isomer, unassigned) [Compound 17 or 18] | ++
8 | O=C1Nc2ccccc2C(O)C1(F)F (centres unmarked) [reference compound] | +/-
9 | CSc1cc2c(cn1)C(O)C(F)(F)CN2 (single isomer, unassigned) [Compound 3 or 4, 3,3-difluoro-7-(methylsulfanyl)-1,2,3,4-tetrahydro-1,6-naphthyridin-4-ol] | +++
10 | CSc1cc2c(cn1)C(O)C(F)(F)C(=O)N2 (single isomer, unassigned) [Compound 7 or 8, 3,3-difluoro-4-hydroxy-7-(methylsulfanyl)-1,2,3,4-tetrahydro-1,6-naphthyridin-2-one] | ++
11 | CSc1ccc2c(c1)NC(=O)CC2=O [reference compound] | +/-
12 | CSc1ccc2c(c1)NC(=O)C(F)(F)C2O (single isomer, unassigned) [Compound 5 or 6, 3,3-difluoro-4-hydroxy-7-(methylsulfanyl)-1,2,3,4-tetrahydroquinolin-2-one] | +++
13 | O=C1Nc2cc(SC3CC3)ccc2C(O)C1(F)F (single isomer, unassigned) [Compound 15 or 16] | ++
14 | CSc1ccc2c(c1)NC(=O)C(F)(F)C2C (single isomer, unassigned) [Compound 9 or 10, 3,3-difluoro-4-methyl-7-(methylsulfanyl)-1,2,3,4-tetrahydroquinolin-2-one] | +++
15 | CSc1ccc2c(c1)NCC(F)(F)C2O (single isomer, unassigned) [Compound 1 or 2, 3,3-difluoro-7-(methylsulfanyl)-1,2,3,4-tetrahydroquinolin-4-ol] | ++
16 | CSc1ccc2c(c1)NCC(F)(F)C2C (single isomer, unassigned) [Compound 11 or 12, 3,3-difluoro-4-methyl-7-(methylsulfanyl)-1,2,3,4-tetrahydroquinoline] | ++
17 | CSc1ccc2c(c1)NC(=O)CC2C (centres unmarked) [reference compound] | +/-
